Experimental data: patent US7115658B2 (priority 2002, dated 2006)

Target: T1, Recombinant HCV polymerase (Hepatitis C virus genotype 1b, UniProt P26663)
T1 construct: 2.5 pmoles (0.15 μg) HCV polymerase protein
Assay: HCV Polymerase Inhibition Assay
Format: biochemical
Details: primer/template-directed transcription, 30 minutes at 30° C.; category symbol
How it was run: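 Recombinant genotype 1b polymerase (2.5 pmol) extended biotin-dG12 on poly(rC)300 with 1 μM GTP plus α-32P-GTP, pH 7.2, 30 min at 30 °C, 1% DMSO final; DE-filter-bound product counted. IC50 fitted from triplicate cpm, refitted with enzyme-concentration (30 nM) tight-binding equation when below 200 nM.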

T1 sequence (P26663 2420-3010): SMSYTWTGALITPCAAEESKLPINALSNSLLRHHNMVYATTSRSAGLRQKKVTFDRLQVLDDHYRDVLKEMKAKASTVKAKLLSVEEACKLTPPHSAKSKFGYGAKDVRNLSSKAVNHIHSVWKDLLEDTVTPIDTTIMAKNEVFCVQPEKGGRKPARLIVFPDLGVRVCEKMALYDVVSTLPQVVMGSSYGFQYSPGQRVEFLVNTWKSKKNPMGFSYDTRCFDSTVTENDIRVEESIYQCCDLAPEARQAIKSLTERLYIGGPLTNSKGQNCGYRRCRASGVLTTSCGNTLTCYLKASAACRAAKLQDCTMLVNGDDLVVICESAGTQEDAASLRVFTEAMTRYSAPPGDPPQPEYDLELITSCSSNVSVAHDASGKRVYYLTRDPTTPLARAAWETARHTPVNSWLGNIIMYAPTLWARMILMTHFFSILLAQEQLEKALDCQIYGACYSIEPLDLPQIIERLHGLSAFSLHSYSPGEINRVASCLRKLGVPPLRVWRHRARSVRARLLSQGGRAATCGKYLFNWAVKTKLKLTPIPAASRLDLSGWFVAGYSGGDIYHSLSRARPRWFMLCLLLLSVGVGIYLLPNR

First: CCOC(=O)c1c[nH]c(SC2=C(O)CC(CCc3ccc(OC)cc3)(C3CCCC3)OC2=O)n1 (stereo not shown) [Example 119, Ethyl 2-({6-cyclopentyl-4-hydroxy-6-[2-(4-methoxyphenyl)ethyl]-2-oxo-5,6-dihydro-2H-pyran-3-yl}thio)-1H-imidazole-4-carboxylate]
Second: O=C1C=C(O)CC(CCc2ccc(OCc3ccc(Cl)c(Cl)c3)cc2)(C2CCCC2)O1 (stereo not shown) [Example 51, 6-Cyclopentyl-6-(2-{4-[(3,4-dichlorobenzyl)oxy]phenyl}ethyl)-4-hydroxy-5,6-dihydro-2H-pyran-2-one]
The IC50 of the first is lower: 1 to 10 µM for the first, 10 to 50 µM for the second. The first is the more potent here.

Cc1cc(SC2=C(O)CC(CCC3CCCC3)(C3CCCC3)OC2=O)c(C(C)(C)C)cc1CO (stereo not shown) [Example 145, 3-(2-tert-butyl-4-hydroxymethyl-5-methyl-phenylsulfanyl)-6-cyclopentyl-6-(2-cyclopentyl-ethyl)-4-hydroxy-5,6-dihydro-pyran-2-one] and O=C1C=C(O)CC(CCc2cc3ccccc3o2)(C2CCCC2)O1 (stereo not shown) [Example 46, 6-[2-(1-benzofuran-2-yl)ethyl]-6-cyclopentyl-4-hydroxy-5,6-dihydro-2H-pyran-2-one] fall in the same range of IC50: 10 to 50 µM for the first, 10 to 50 µM for the second.

CCn1nnnc1SC1=C(O)CC(CCc2cc(Cl)c(OC)cc2OC)(C2CCCC2)OC1=O (stereo not shown) [Example 106, 6-[2-(5-Chloro-2,4-dimethoxyphenyl)ethyl]-6-cyclopentyl-3-[(1-ethyl-1H-tetraazol-5-yl)thio]-4-hydroxy-5,6-dihydro-2H-pyran-2-one] and COc1cc(OC)c(CCC2(C3CCCC3)CC(O)=C(Sc3nc(N)c4cn[nH]c4n3)C(=O)O2)cc1Cl (stereo not shown) [Example 97, 3-[(4-amino-1H-pyrazolo[3,4-d]pyrimidin-6-yl)thio]-6-[2-(5-chloro-2,4-dimethoxyphenyl)ethyl]-6-cyclopentyl-4-hydroxy-5,6-dihydro-2H-pyran-2-one] cannot be ordered by IC50: less than 1 µM for the first, less than 1 µM for the second.

First: CS(=O)(=O)c1ccc(CCC2(C3CCCC3)CC(=O)CC(=O)O2)cc1 (stereo not shown) [Example 28, 6-Cyclopentyl-6-[2-(4-methanesulfonyl-phenyl)-ethyl]-dihydro-pyran-2,4-dione]
Second: O=C1C=C(O)CC(CCC2CCCC2)(C2CCCC2)O1 (stereo not shown) [Example 150, 6-Cyclopentyl-6-(2-cyclopentyl-ethyl)-4-hydroxy-5,6-dihydro-pyran-2-one]
The IC50 of the first is lower: 1 to 10 µM for the first, 10 to 50 µM for the second. The first is the more potent here.

Compared with Cn1c(COc2ccc(CCC3(C4CCCC4)CC(O)=CC(=O)O3)cc2)nc2ccccc21 (stereo not shown) [Example 50, 6-Cyclopentyl-6-(2-{4-[(1-methyl-1H-benzimidazol-2-yl)methoxy]phenyl}ethyl)-4-hydroxy-5,6-dihydro-2H-pyran-2-one], O=C1OC(CCc2ccc(O)cc2)(C2CCCC2)CC(O)=C1Sc1ccc2ccccc2c1 (stereo not shown) [Example 83] is lower in IC50: 10 to 50 µM for the first, 1 to 10 µM for the second.

COc1ccc(CCC2(C3CCCC3)CC(=O)C(C(=O)Cc3ccccc3)C(=O)O2)c(OC)c1 (stereo not shown) [Example 169, 6-Cyclopentyl-6-[2-(2,4-dimethoxy-phenyl)-ethyl]-3-phenylacetyl-dihydro-pyran-2,4-dione] and O=C(Cc1ccccc1)C1C(=O)CC(CCc2cccc(Cl)c2)(C2CCCC2)OC1=O (stereo not shown) [Example 170, 6-[2-(3-Chloro-phenyl)-ethyl]-6-cyclopentyl-3-phenylacetyl-dihydro-pyran-2,4-dione] fall in the same range of IC50: 10 to 50 µM for the first, 10 to 50 µM for the second.

First: CC(=O)c1cccc(CCC2(C3CCCC3)CC(=O)CC(=O)O2)c1 (stereo not shown) [Example 64, 6-[2-(3-Acetyl-phenyl)-ethyl]-6-cyclopentyl-dihydro-pyran-2,4-dione]
Second: O=C1CC(=O)OC(CCc2ccc3c(c2)OCO3)(C2CCCC2)C1 (stereo not shown) [Example 23, 6-(2-Benzo[1,3]dioxol-5-yl-ethyl)-6-cyclopentyl-dihydro-pyran-2,4-dione]
The IC50 of the first is lower: 1 to 10 µM for the first, 10 to 50 µM for the second. The first is the more potent here.

First: O=C1CC(=O)OC(CCc2ccc(N3CCCC3=O)c(F)c2)(C2CCCC2)C1 (stereo not shown) [Example 80, 6-Cyclopentyl-6-{2-[3-fluoro-4-(2-oxo-pyrrolidin-1-yl)-phenyl]-ethyl}-dihydro-pyran-2,4-dione]
Second: COc1cc(OC)c(CCC2(C3CCCC3)CC(O)=C(Sc3nnc(O)n3C)C(=O)O2)cc1Cl (stereo not shown) [Example 95, 6-[2(5-chloro-2,4-dimethoxyphenyl)ethyl]-6-cyclopentyl-4-hydroxy-3-[(5-hydroxy-4-methyl-4H-1,2,4-triazol-3-yl)thio]-5,6-dihydro-2H-pyran-2-one]
The IC50 of the first is higher: 1 to 10 µM for the first, less than 1 µM for the second.

First: O=C1C=C(O)CC(CCc2ccc(Oc3ccccc3)cc2)(C2CCCC2)O1 (stereo not shown) [Example 47, 6-cyclopentyl-6-[2-(4-phenoxyphenyl)ethyl]-4-hydroxy-5,6-dihydro-2H-pyran-2-one]
Second: Cc1cc(SC2=C(O)C[C@@](CCc3cccc(O)c3)(C3CCCC3)OC2=O)c(C(C)(C)C)cc1CO [Example 152, (S)-3-(2-tert-butyl-4-hydroxymethyl-5-methyl-phenylsulfanyl)-6-cyclopentyl-4-hydroxy-6-[2-(3-hydroxy-phenyl)-ethyl]-5,6-dihydro-pyran-2-one]
The IC50 of the first is higher: 10 to 50 µM for the first, 1 to 10 µM for the second. The second is the more potent here.

CC1(c2ccc(CCC3(C4CCCC4)CC(=O)CC(=O)O3)cc2F)OCCO1 (stereo not shown) [Example 60, 6-Cyclopentyl-6-{2-[3-fluoro-4-(2-methyl-[1,3]dioxolan-2-yl)-phenyl]-ethyl}-dihydro-pyran-2,4-dione] and CCCOc1ccc(CCC2(C3CCCC3)CC(=O)CC(=O)O2)cc1F (stereo not shown) [Example 72, 6-Cyclopentyl-6-[2-(3-fluoro-4-propoxy-phenyl)-ethyl]-dihydro-pyran-2,4-dione] fall in the same range of IC50: 1 to 10 µM for the first, 1 to 10 µM for the second.

Compared with COc1cc(CCC2(C3CCCC3)CC(O)=CC(=O)O2)ccc1OCc1ccccc1 (stereo not shown) [Example 20, 6-[2-(4-Benzyloxy-3-methoxy-phenyl)-ethyl]-6-cyclopentyl-4-hydroxy-5,6-dihydro-pyran-2-one], CCOc1ccc(CCC2(C3CCCC3)CC(=O)CC(=O)O2)cc1Cl (stereo not shown) [Example 44] is lower in IC50: 1 to 10 µM for the first, less than 1 µM for the second.

O=C1C=C(O)CC(CCc2ccc(OCc3ccc(C(F)(F)F)nc3)cc2)(C2CCCC2)O1 (stereo not shown) [Example 52, 6-Cyclopentyl-6-[2-(4-{[6-(trifluoromethyl)pyridin-3-yl]methoxy}phenyl)ethyl]4-hydroxy-5,6-dihydro-2H-pyran-2-one] and COc1ccc(CCC2(C3CCCC3)CC(=O)CC(=O)O2)cn1 (stereo not shown) [Example 8, 6-cyclopentyl-6-[2-(6-methoxypyridin-3-yl)ethyl]dihydro-2H-pyran-2,4(3H)-dione] fall in the same range of IC50: 10 to 50 µM for the first, 10 to 50 µM for the second.

CC(C)c1ccc(CCC2(C3CCCC3)CC(=O)CC(=O)O2)cc1 (stereo not shown) [Example 40, 6-Cyclopentyl-6-[2-(4-isopropyl-phenyl)-ethyl]-dihydro-pyran-2,4-dione] and O=C1CC(=O)OC(CCc2ccc(OC3CCC3)c(F)c2)(C2CCCC2)C1 (stereo not shown) [Example 56, 6-[2-(4-Cyclobutoxy-3-fluoro-phenyl)-ethyl]-6-cyclopentyl-dihydro-pyran-2,4-dione] fall in the same range of IC50: 1 to 10 µM for the first, 1 to 10 µM for the second.

First: 6-Cyclopentyl-6-[2-(4-methoxy-phenyl)-ethyl]-3-[2-(3-methyl-isoxazol-5-yl)-acetyl]-dihydro-pyran-2,4-dione [Example 165]
Second: COc1cc(OC)c(CCC2(C3CCCC3)CC(O)=C(Sc3nc[nH]n3)C(=O)O2)cc1Cl (stereo not shown) [Example 93, 6-[2-(5-Chloro-2,4-dimethoxyphenyl)ethyl]-6-cyclopentyl-4-hydroxy-3-(1H-1,2,4-triazol-3-ylthio)-5,6-dihydro-2H-puran-2-one]
The IC50 of the first is higher: 10 to 50 µM for the first, less than 1 µM for the second.

First: COc1ccc(CCC2(C3CCCC3)CC(O)=C(Sc3nc(N)n[nH]3)C(=O)O2)cc1 (stereo not shown) [Example 115, 3-[(3-Amino-1H-1,2,4-triazol-5-yl)thio]-6-cyclopentyl-4-hydroxy-6-[2-(4-methoxyphenyl)ethyl]-5,6-dihydro-2H-pyran-2-one]
Second: COc1ccc(CCC2(C3CCCC3)CC(=O)C(Oc3ccc(Cl)cc3)C(=O)O2)c(OC)c1 (stereo not shown) [Example 164, 3-(4-Chloro-phenoxy)-6-cyclopentyl-6-[2-(2,4-dimethoxy-phenyl)-ethyl]-dihydro-pyran-2,4-dione]
The IC50 of the first is lower: 1 to 10 µM for the first, 10 to 50 µM for the second. The first is the more potent here.

First: Cc1cc(SC2=C(O)CC(CCc3ccc(O)cc3)(C3CCCC3)OC2=O)c(C(C)(C)C)cc1N (stereo not shown) [Example 136, 3-(4-Amino-2-tert-butyl-5-methyl-phenylsulfanyl)-6-cyclopentyl-4-hydroxy-6-[2-(4-hydroxy-phenyl)-ethyl]-5,6-dihydro-pyran-2-one]
Second: COc1ccc(CCC2(C3CCCC3)CC(=O)C(C(=O)Cc3ccccc3)C(=O)O2)cc1 (stereo not shown) [Example 171, 6-Cyclopentyl-6-[2-(4-methoxy-phenyl)-ethyl]-3-phenylacetyl-dihydro-pyran-2,4-dione]
The IC50 of the first is lower: less than 1 µM for the first, 10 to 50 µM for the second. The first is the more potent here.

First: COc1cc(OC)c(CCC2(C3CCCC3)CC(O)=C(SC3=NCCCN3)C(=O)O2)cc1Cl (stereo not shown) [Example 110, 6-[2-(5-Chloro-2,4-dimethoxyphenyl)ethyl]-6-cyclopentyl-4-hydroxy-3-(1,4,5,6-tetrahydropyrimidin-2-ylthio)-5,6-dihydro-2H-pyran-2-one]
Second: O=C1CC(=O)OC(CCc2ccc(C3OCCO3)c(F)c2)(C2CCCC2)C1 (stereo not shown) [Example 78, 6-Cyclopentyl-6-[2-(4-[1,3]dioxolan-2-yl-3-fluoro-phenyl)-ethyl]-dihydro-pyran-2,4-dione]
The IC50 of the first is lower: less than 1 µM for the first, 1 to 10 µM for the second. The first is the more potent here.

COc1cc(OC)c(CCC2(C3CCCC3)CC(O)=C(Sc3nnnn3CCN(C)C)C(=O)O2)cc1Cl (stereo not shown) [Example 107, 6-[2-(5-Chloro-2,4-dimethoxyphenyl)ethyl]-6-cyclopentyl-3-({1-[2-(dimethylamino)ethyl]-1H-tetraazol-5-yl}thio)-4-hydroxy-5,6-dihydro-2H-pyran-2-one] and CC1(c2ccc(CCC3(C4CCCC4)CC(=O)CC(=O)O3)cc2Cl)CC(=O)CC(=O)O1 (stereo not shown) [Example 82, 6-Cyclopentyl-[6-(2-Chloro-phenyl)-6-methyl-dihydro-pyran-2,4-dione]-dihydro-pyran-2,4-dione] cannot be ordered by IC50: less than 1 µM for the first, less than 1 µM for the second.

In the case of COc1ccc(CCC2(C3CCCC3)CC(=O)C(C(=O)Cc3cccnc3)C(=O)O2)cc1 (stereo not shown) [Example 173, 6-Cyclopentyl-6-[2-(4-methoxy-phenyl)-ethyl]-3-(2-pyridin-3-yl-acetyl)-dihydro-pyran-2,4-dione], the IC50 is reported as 1 to 10 µM.
